# Key:
# Assay type in all cases: cell-based
# [1] = tested on: NF-κB; experiment: Immunological activity test: inhibition of NF-κB activity; conditions: initial concentration of 30 μM; a/b isomers given as first/second symbol; read-out: IC50 (μM), inhibitory activity against NF-κB
# Procedure, shortened: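 IC50 values were derived after initial screening of compounds at 30 μM for NF-κB inhibitory activity, with parthenolide serving as the positive control.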
# [2] = tested on: human embryonic lung fibroblast IMR-90; experiment: Anti-fibrosis activity test: inhibition of proliferation of human embryonic lung fibroblast IMR-90 (CCK-8); conditions: human embryonic lung fibroblast IMR-90, CCK-8, 48 hours
# Procedure, shortened: (§1)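 Proliferation inhibition is measured by CCK-8 after cells plated at 2×10^4 cells/mL attach overnight (24 h) and then receive test compounds for 48 h at several concentrations, each in triplicate. Optical density at 450 nm gives IR = (1−Ai/Ao)×100%, from which IC50 is computed.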
# [3] = tested on: BHK-21 cells; experiment: Anti-fibrosis activity test: inhibition of BHK-21 cell proliferation (CCK-8); conditions: Mesocricetus auratus, BHK-21, 48 h, CCK-8, 48 hours after administration
# Procedure, shortened: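 BHK-21 cells seeded at 2×10^4 cells/mL, allowed to adhere 24 h at 37° C, 5% CO2, then exposed to compounds at graded concentrations in triplicate for 48 h. CCK-8 added for 2 h and absorbance read at 450 nm; inhibition rate taken as (1−Ai/Ao)×100% and IC50 fitted.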
# [4] = tested on: human fibrosarcoma cells HT-1080; experiment: Anti-fibrosis activity test: inhibition of proliferation of human fibrosarcoma cells HT-1080 (CCK-8); conditions: Homo sapiens, HT-1080, 48 h, human fibrosarcoma cells HT-1080, CCK-8, 48 hours
# Procedure, shortened: as §1
# [5] = tested on: human hepatic stellate cells LX-2; experiment: Anti-fibrosis activity test: inhibition of proliferation of human hepatic stellate cells LX-2 (CCK-8); conditions: Homo sapiens, 48 h, human hepatic stellate cells LX-2, CCK-8, 48 hours
# Procedure, shortened: as §1
# [6] = tested on: human lung fibroblasts HFL1; experiment: Anti-fibrosis activity test: inhibition of proliferation of human lung fibroblasts HFL1 (CCK-8); conditions: Homo sapiens, HFL1, 48 h, human lung fibroblasts HFL1, CCK-8, 48 hours
# Procedure, shortened: as §1
# [7] = tested on: mouse macrophages (RAW264.7); experiment: Lipopolysaccharide-induced NO secretion in macrophages (Griess); conditions: Mus musculus, RAW264.7, 24 h, RAW264.7, LPS 1 μg/ml, a/b isomers given as first/second symbol, read-out: IC50 (μM), inhibition of lipopolysaccharide-induced NO secretion in macrophages
# Procedure, shortened: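 Indomethacin and resveratrol served as positive controls while compounds were tested across concentrations on LPS-stimulated (1 μg/ml, 24 h) RAW264.7 cells. NO output was quantified colorimetrically (Griess, 548 nm).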
# [8] = tested on: human dermal fibroblasts CCC-ESF-1; experiment: Anti-fibrosis activity test: inhibition of proliferation of human dermal fibroblasts CCC-ESF-1 (CCK-8); conditions: Fibroblast; human dermal fibroblasts CCC-ESF-1, CCK-8, 48 hours
# Procedure, shortened: as §1
# [9] = tested on: cardiac fibroblast RAT-iCell-C002; experiment: Anti-fibrosis activity test: inhibition of proliferation of cardiac fibroblast RAT-iCell-C002 (CCK-8); conditions: Cardiac fibroblast, 48 h, cardiac fibroblast RAT-iCell-C002, CCK-8, 48 hours
# Procedure, shortened: as §1
IC50 [1],IC50 [4],IC50 [7],SMILES,IC50 [2],IC50 [3],IC50 [5],IC50 [6],IC50 [8],IC50 [9]
1 to 10 µM,0.05 to 5 mM,1 to 10 µM,"O=C1c2c([nH]c3c(O)cccc3c2=O)-c2cccn21 [Compound 445a, 5-Hydroxy-9H-pyrrolizino[1,2-b]quinoline-9,10(4H)-dione]",0.05 to 5 mM,0.05 to 5 mM,0.05 to 5 mM,0.05 to 5 mM,0.05 to 5 mM,0.05 to 5 mM
1 to 10 µM,0.05 to 5 mM,1 to 10 µM,"O=C1c2c(nc3c(O)cccc3c2O)-c2cccn21 [Compound 445b, 5,9-dihydroxy-10H-pyrrolizino[1,2-b]quinolin-10-one]",0.05 to 5 mM,0.05 to 5 mM,0.05 to 5 mM,0.05 to 5 mM,0.05 to 5 mM,0.05 to 5 mM
0.1 to 1 µM,0.05 to 5 mM,1 to 10 µM,"COc1cccc2c(=O)c3c([nH]c12)-c1cccn1C3=O [Compound 446a, 5-Methoxy-9H-pyrrolizino[1,2-b]quinoline-9,10(4H)-dione]",0.05 to 5 mM,0.05 to 5 mM,0.05 to 5 mM,0.05 to 5 mM,0.05 to 5 mM,0.05 to 5 mM
0.001 to 0.1 µM,0.05 to 5 mM,1 to 10 µM,"COc1cccc2c(O)c3c(nc12)-c1cccn1C3=O [Compound 446b, 9-hydroxy-5-methoxy-10H-pyrrolizino[1,2-b]quinolin-10-one]",0.05 to 5 mM,0.05 to 5 mM,0.05 to 5 mM,0.05 to 5 mM,0.05 to 5 mM,0.05 to 5 mM
0.1 to 1 µM,< 0.05 mM,0.1 to 1 µM,"N#Cc1cccc2c(=O)c3c([nH]c12)-c1cccn1C3=O [Compound 447a, 9,10-Dioxo-4,10-dihydro-9H-pyrrolizino[1,2-b]quinoline-5-carbonitrile]",0.05 to 5 mM,0.05 to 5 mM,0.05 to 5 mM,0.05 to 5 mM,0.05 to 5 mM,0.05 to 5 mM
0.1 to 1 µM,0.05 to 5 mM,1 to 10 µM,"N#Cc1cccc2c(O)c3c(nc12)-c1cccn1C3=O [Compound 447b, 9-hydroxy-10-oxo-10H-pyrrolizino[1,2-b]quinoline-5-carbonitrile]",0.05 to 5 mM,0.05 to 5 mM,0.05 to 5 mM,0.05 to 5 mM,0.05 to 5 mM,0.05 to 5 mM
1 to 10 µM,0.05 to 5 mM,0.1 to 1 µM,"O=C1c2c([nH]c3c(C(F)(F)F)cccc3c2=O)-c2cccn21 [Compound 448a, 5-(Trifluoromethyl)-9H-pyrrolizino[1,2-b]quinoline-9,10(4H)-dione]",0.05 to 5 mM,0.05 to 5 mM,0.05 to 5 mM,0.05 to 5 mM,0.05 to 5 mM,0.05 to 5 mM
1 to 10 µM,< 0.05 mM,1 to 10 µM,"O=C1c2c(nc3c(C(F)(F)F)cccc3c2O)-c2cccn21 [Compound 448b, 9-hydroxy-5-(trifluoromethyl)-10H-pyrrolizino[1,2-b]quinolin-10-one]",0.05 to 5 mM,0.05 to 5 mM,0.05 to 5 mM,0.05 to 5 mM,0.05 to 5 mM,0.05 to 5 mM
0.1 to 1 µM,0.05 to 5 mM,1 to 10 µM,"O=C1c2c(n(Cc3cccc(F)c3)c3c(F)cccc3c2=O)-c2cccn21 [Compound 458a, 5-Fluoro-4-(3-fluorobenzyl)-9H-pyrrolizino[1,2-b]quinoline-9,10(4H)-dione]",0.05 to 5 mM,< 0.05 mM,0.05 to 5 mM,0.05 to 5 mM,0.05 to 5 mM,0.05 to 5 mM
1 to 10 µM,0.05 to 5 mM,1 to 10 µM,"O=C1c2c(nc3c(F)cccc3c2OCc2cccc(F)c2)-c2cccn21 [Compound 458b, 5-fluoro-9-((3-fluorobenzyl)oxy)-10H-pyrrolizino[1,2-b]quinolin-10-one]",0.05 to 5 mM,0.05 to 5 mM,0.05 to 5 mM,0.05 to 5 mM,0.05 to 5 mM,0.05 to 5 mM

# Continued, compound first:
SMILES,IC50 [1],IC50 [4],IC50 [7],IC50 [2],IC50 [3],IC50 [5],IC50 [6],IC50 [8],IC50 [9]
"O=C1c2c([nH]c3ccc(OC(F)(F)F)cc3c2=O)-c2cccn21 [Compound 306a, 7-(Trifluoromethoxy)-9H-pyrrolizino[1,2-b]quinoline-9,10(4H)-dione]",1 to 10 µM,0.05 to 5 mM,1 to 10 µM,0.05 to 5 mM,0.05 to 5 mM,0.05 to 5 mM,0.05 to 5 mM,0.05 to 5 mM,0.05 to 5 mM
"O=C1c2c(nc3ccc(OC(F)(F)F)cc3c2O)-c2cccn21 [Compound 306b, 9-hydroxy-7-(trifluoromethoxy)-10H-pyrrolizino[1,2-b]quinolin-10-one]",1 to 10 µM,0.05 to 5 mM,0.1 to 1 µM,0.05 to 5 mM,0.05 to 5 mM,0.05 to 5 mM,0.05 to 5 mM,0.05 to 5 mM,0.05 to 5 mM
"O=C1c2c([nH]c3cc(N4CCNCC4)ccc3c2=O)-c2cccn21 [Compound 319a, 6-(piperazin-1-yl)-9H-pyrrolizino[1,2-b]quinoline-9,10(4H)-dione]",1 to 10 µM,0.05 to 5 mM,1 to 10 µM,0.05 to 5 mM,0.05 to 5 mM,0.05 to 5 mM,0.05 to 5 mM,< 0.05 mM,0.05 to 5 mM
"O=C1c2c(nc3cc(N4CCNCC4)ccc3c2O)-c2cccn21 [Compound 319b, 9-Hydroxy-6-(piperazin-1-yl)-10H-pyrrolizino[1,2-b]quinolin-10-one]",1 to 10 µM,0.05 to 5 mM,1 to 10 µM,0.05 to 5 mM,0.05 to 5 mM,0.05 to 5 mM,0.05 to 5 mM,< 0.05 mM,0.05 to 5 mM
"Cn1c2c(c(=O)c3ccc(N4CCNCC4)cc31)C(=O)n1cccc1-2 [Compound 328a, 4-Methyl-6-(piperazin-1-yl)-9H-pyrrolizino[1,2-b]quinoline-9,10(4H)-dione]",0.1 to 1 µM,0.05 to 5 mM,1 to 10 µM,0.05 to 5 mM,< 0.05 mM,0.05 to 5 mM,0.05 to 5 mM,0.05 to 5 mM,0.05 to 5 mM
"COc1c2c(nc3cc(N4CCNCC4)ccc13)-c1cccn1C2=O [Compound 328b, 9-methoxy-6-(piperazin-1-yl)-10H-pyrrolizino[1,2-b]quinolin-10-one]",1 to 10 µM,0.05 to 5 mM,1 to 10 µM,0.05 to 5 mM,0.05 to 5 mM,0.05 to 5 mM,0.05 to 5 mM,0.05 to 5 mM,0.05 to 5 mM
"O=C1c2c([nH]c3c(Cl)cccc3c2=O)-c2cccn21 [Compound 443a, 5-Chloro-9H-pyrrolizino[1,2-b]quinoline-9,10(4H)-dione]",1 to 10 µM,0.05 to 5 mM,1 to 10 µM,0.05 to 5 mM,0.05 to 5 mM,0.05 to 5 mM,0.05 to 5 mM,0.05 to 5 mM,0.05 to 5 mM
"O=C1c2c(nc3c(Cl)cccc3c2O)-c2cccn21 [Compound 443b, 5-chloro-9-hydroxy-10H-pyrrolizino[1,2-b]quinolin-10-one]",1 to 10 µM,0.05 to 5 mM,1 to 10 µM,0.05 to 5 mM,0.05 to 5 mM,0.05 to 5 mM,0.05 to 5 mM,0.05 to 5 mM,0.05 to 5 mM
"O=C1c2c([nH]c3c(F)cccc3c2=O)-c2cccn21 [Compound 444a, 5-Fluoro-9H-pyrrolizino[1,2-b]quinoline-9,10(4H)-dione]",1 to 10 µM,0.05 to 5 mM,0.1 to 1 µM,0.05 to 5 mM,0.05 to 5 mM,0.05 to 5 mM,0.05 to 5 mM,0.05 to 5 mM,0.05 to 5 mM
"O=C1c2c(nc3c(F)cccc3c2O)-c2cccn21 [Compound 444b, 5-fluoro-9-hydroxy-10H-pyrrolizino[1,2-b]quinolin-10-one]",1 to 10 µM,0.05 to 5 mM,1 to 10 µM,0.05 to 5 mM,0.05 to 5 mM,0.05 to 5 mM,0.05 to 5 mM,0.05 to 5 mM,0.05 to 5 mM

# From patent US11040028B2, “Penicinotam derivative, preparation method and use thereof” (OCEAN UNIVERSITY OF CHINA, priority 2017, dated 2021)
